This note sets out measurements from paper PMC4538536, “In Silico-Based High-Throughput Screen for Discovery of Novel Combinations for Tuberculosis Treatment” (Antimicrobial Agents and Chemotherapy, 2015).

Series [1] relates to M. tuberculosis H37Rv. The experiment in a line: MIC determination, resazurin-based microplate assay. The class given is cell-based, Mycobacterium tuberculosis. The conditions noted are these: Mycobacterium tuberculosis, single drug. A general note: The colour change of resazurin is a common sign of viable cells or microbes.
For series [2], the system named is M. tuberculosis H37Rv. The experiment in a line: In vitro bactericidal-effect analysis (CFU enumeration of checkerboard wells). The format is cell-based, Mycobacterium tuberculosis. The conditions noted are these: single drug at its MIC (FIC of 1); positive = reduction in CFU. The procedure:
For determining the extent of the bactericidal effect, sample wells which remained blue in the resazurin microtiter assay (REMA) and whose ΣFICs were within the synergistic-to-additive range (<0.7 for doublets and <1.5 for triplets) were plated on Middlebrook 7H10 agar medium and incubated at 37°C for 21 to 28 days, following which bacterial colonies were enumerated to obtain the net reduction in CFU in comparison to the counts for the untreated controls at the start of drug testing, as well as to that achieved when M. tuberculosis was exposed to each drug alone.

Series [3] is described as follows: In vivo pharmacokinetics in infected mice (plasma, LC-MS/MS). The conditions noted are these: BALB/c, mouse, plasma, po, steady state, infected mice. Details: species or system BALB/c mice. How it is done: The drugs were formulated in 0.5% hydroxypropyl methyl cellulose (HPMC)–0.1% Tween 80 suspensions as 3- or 4-drug combinations. Formulations were prepared by weighing and adding each compound to the bottle, according to the design. Formulation vehicle was added, and the suspension was stirred overnight. Only uniform suspensions were used, while those that precipitated were abandoned. Formulations were prepared every week, and compound stability was estimated at the end of the week. Pharmacokinetics (PK) analysis was performed on infected mice on the 20th day of dosing. Blood samples were collected from each mouse at 0.5, 2, 4, 6, and 24 h after compound administration. Blood samples of about 30 μl were collected from mice in all groups by serial sampling via the saphenous vein into Microvette CB300 tubes (Starstedt, Germany) coated with EDTA, and plasma (10 μl) was separated following centrifugation. Plasma samples were stored at –20°C until analysis using liquid chromatography-tandem mass spectrometry (LC-MS/MS).
A 1-mg/ml stock solution of each compound was prepared in dimethyl sulfoxide (DMSO) for all of the analytes except PZA and LZD, for which the stock solution was 10 mg/ml in DMSO, and RIF, for which the stock solution was prepared in 50% acetonitrile in water. Three different sets of calibration standard (CS) combinations were prepared by 2-fold dilution of the stock solutions. CS set 1 contained analytes CLO, BDQ, PA824, PZA, and SQ109, CS set 2 contained analytes BTZ043, MXF, THI, EMB, and PZA, and CS set 3 contained LZD, INH, RIF, and PZA. A 16-point calibration curve was utilized for all analytes, and the standard curves ranged from 0.0005 to 20 μg/ml except for PZA and LZD, for which the standard curve range was 0.006 to 200 μg/ml. Plasma samples were precipitated by adding chilled acetonitrile (1:10, vol/vol) containing carbamazepine as an internal standard (10 ng/ml). Samples were vortexed and then centrifuged at 4,000 rpm for 30 min at 10°C. The resulting supernatant was mixed with the mobile phase (50% acetonitrile in water with 0.1% formic acid). Five microliters of the sample was injected on to a liquid chromatographic system (Acquity ultraperformance liquid chromatography [UPLC] system, Waters, Milford, MA) coupled to a triple-quadrupole mass spectrometer (Xevo TQ-S; Waters, Milford, MA). Samples were separated on an LC column (ACE 3 C18, 50 by 4.6 mm, 3 μm particle size; Advanced Chromatography Technologies, Aberdeen, Scotland) by isocratic elution with 40 parts of 20 mM ammonium formate containing 0.1% (vol/vol) formic acid and 60 parts of acetonitrile at a flow rate of 0.5 ml/min with a run time of 4 min. Samples were acquired in positive ion mode and detected by multiple reaction monitoring (MRM). The concentrations of the analyte were determined from a standard curve obtained by plotting known concentrations of the analyte against peak area ratios (analyte/internal standard peak response).
PK analyses of the plasma concentration-time relationships were performed with Phoenix software (version 6.2; Pharsight, USA). A noncompartmental analysis program, model 200, was used to calculate PK parameters. The maximum concentration of drug in plasma (Cmax), time to Cmax (Tmax), elimination half-life (t1/2), and area under the concentration-time curve (AUC) from time zero to infinity (AUC0–∞) were estimated. AUC was computed using the trapezoidal rule (linear up and log down), and the AUC0–∞ was considered only when the extrapolated AUC was not more than 20% of the original value. A minimum of three sample points in the terminal slope were used to calculate half-life.

Setting [4] is: 150 mg/kg, Group 7 quartet PA824 50/BDQ 25/MXF 400/PZA 150 mg/kg oral, read-out: AUC0-24 in Quartet.
The mark [5] stands for this setting: 150 mg/kg, Group 7 quartet PA824 50/BDQ 25/MXF 400/PZA 150 mg/kg oral, read-out: Cmax in Quartet.
The mark [6] stands for this setting: 400 mg/kg, Group 7 triplet PA824 50/BDQ 25/MXF 400 mg/kg oral, read-out: AUC0-24 in Triplet.
[7] abbreviates: 400 mg/kg, Group 7 triplet PA824 50/BDQ 25/MXF 400 mg/kg oral, read-out: Cmax in Triplet.
Where [8] appears, read: 50 mg/kg, Group 1 triplet CFZ 20/BDQ 25/PA824 50 mg/kg oral, read-out: AUC0-24 in Triplet.
Where [9] appears, read: 50 mg/kg, Group 1 triplet CFZ 20/BDQ 25/PA824 50 mg/kg oral, read-out: Cmax in Triplet.
Where [10] appears, read: 150 mg/kg, Group 1 quartet CFZ 20/BDQ 25/PA824 50/PZA 150 mg/kg oral, read-out: AUC0-24 in Quartet.
Setting [11] is: 150 mg/kg, Group 1 quartet CFZ 20/BDQ 25/PA824 50/PZA 150 mg/kg oral, read-out: Cmax in Quartet.

≈ marks a conversion by molar mass, not a printed value. Where two headings read alike, the source gives them in different places.

In the case of `COc1c(N2C[C@@H]3CCCN[C@@H]3C2)c(F)cc2c(=O)c(C(=O)O)cn(C3CC3)c12` [Moxifloxacin], the lowest concentration to inhibit growth in series [1] (MIC) was 0.02 µM (≈ 0.00803 µg/mL). Also, in series [2], the “ΔLog10 CFU/ml at the MIC” value was 1.40 Log10 CFU/ml. Moreover, the AUC(0-t) was determined as 13300 ± 3100 ng·h/mL in series [3] (150 mg/kg, Group 3 quartet BTZ043 37.5/SQ109 25/MXF 200/PZA 150 mg/kg oral, read-out: AUC0-24 in Quartet); 76300 ± 13900 ng·h/mL in series [3] (setting [4]); 12100 ± 3500 ng·h/mL in series [3] (200 mg/kg, Group 3 triplet BTZ043 37.5/SQ109 25/MXF 200 mg/kg oral, read-out: AUC0-24 in Triplet); 29800 ± 6600 ng·h/mL in series [3] (setting [6]). For the same compound, the Cmax in series [3] (150 mg/kg, Group 3 quartet BTZ043 37.5/SQ109 25/MXF 200/PZA 150 mg/kg oral, read-out: Cmax in Quartet) is 3900 ± 600 ng/mL; in series [3] (setting [5]), 5100 ± 700 ng/mL; in series [3] (200 mg/kg, Group 3 triplet BTZ043 37.5/SQ109 25/MXF 200 mg/kg oral, read-out: Cmax in Triplet) it was 2200 ± 900 ng/mL; in series [3] (setting [7]), 4600 ± 800 ng/mL.
In turn, `CC(=O)Nc1ccc(/C=N/NC(N)=S)cc1` [Thiacetazone] showed an MIC in series [1] of 8.47 µM (≈ 2 µg/mL). Besides, the “ΔLog10 CFU/ml at the MIC” value in series [2] was determined as 0.76 Log10 CFU/ml. The AUC(0-t) in series [3] (25 mg/kg, Group 6 triplet BTZ043 37.5/THI 800/SQ109 25 mg/kg oral, read-out: AUC0-24 in Triplet) was found to be 87000 ± 52100 ng·h/mL; in series [3] (150 mg/kg, Group 6 quartet BTZ043 37.5/THI 800/SQ109 25/PZA 150 mg/kg oral, read-out: AUC0-24 in Quartet), 68000 ± 16000 ng·h/mL. The Cmax in series [3] (25 mg/kg, Group 6 triplet BTZ043 37.5/THI 800/SQ109 25 mg/kg oral, read-out: Cmax in Triplet) amounted to 8500 ± 2800 ng/mL; in series [3] (150 mg/kg, Group 6 quartet BTZ043 37.5/THI 800/SQ109 25/PZA 150 mg/kg oral, read-out: Cmax in Quartet) it was 5100 ± 400 ng/mL.
`O=[N+]([O-])c1cn2c(n1)OC[C@@H](OCc1ccc(OC(F)(F)F)cc1)C2` [PA824] showed an MIC in series [1] of 1.09 µM (≈ 0.392 µg/mL). For the same compound, the “ΔLog10 CFU/ml at the MIC” value in series [2] is on record as 1.07 Log10 CFU/ml. Besides, the AUC(0-t) in series [3] (setting [8]) worked out at 76700 ± 18500 ng·h/mL; in series [3] (50 mg/kg, Group 2 triplet SQ109 25/BDQ 25/PA824 50 mg/kg oral, read-out: AUC0-24 in Triplet) it was 86200 ± 8600 ng·h/mL; in series [3] (100 mg/kg, Group 8 triplet PA824 50/BDQ 25/EMB 100 mg/kg oral, read-out: AUC0-24 in Triplet), 119000 ± 13800 ng·h/mL; in series [3] (setting [10]) it was 60900 ± 8000 ng·h/mL; in series [3] (150 mg/kg, Group 2 quartet SQ109 25/BDQ 25/PA824 50/PZA 150 mg/kg oral, read-out: AUC0-24 in Quartet), 60700 ± 10000 ng·h/mL; in series [3] (setting [4]), 92100 ± 12700 ng·h/mL. In addition, the AUC(0-t) was found to be 66400 ± 19000 ng·h/mL in series [3] (150 mg/kg, Group 8 quartet PA824 50/BDQ 25/EMB 100/PZA 150 mg/kg oral, read-out: AUC0-24 in Quartet) and 134000 ± 41700 ng·h/mL in series [3] (setting [6]). Further, the Cmax was determined as 11200 ± 2400 ng/mL in series [3] (setting [9]); 9300 ± 2300 ng/mL in series [3] (50 mg/kg, Group 2 triplet SQ109 25/BDQ 25/PA824 50 mg/kg oral, read-out: Cmax in Triplet); 13300 ± 500 ng/mL in series [3] (100 mg/kg, Group 8 triplet PA824 50/BDQ 25/EMB 100 mg/kg oral, read-out: Cmax in Triplet); 7800 ± 1100 ng/mL in series [3] (setting [11]); 7300 ± 1100 ng/mL in series [3] (150 mg/kg, Group 2 quartet SQ109 25/BDQ 25/PA824 50/PZA 150 mg/kg oral, read-out: Cmax in Quartet); 6000 ± 800 ng/mL in series [3] (setting [5]). The highest concentration (Cmax) in series [3] (150 mg/kg, Group 8 quartet PA824 50/BDQ 25/EMB 100/PZA 150 mg/kg oral, read-out: Cmax in Quartet) was 9800 ± 3600 ng/mL; in series [3] (setting [7]), 8400 ± 1000 ng/mL.
Compound `CC(C)/N=c1\cc2n(-c3ccc(Cl)cc3)c3ccccc3nc-2cc1Nc1ccc(Cl)cc1` [Clofazimine] displayed an MIC in series [1] of 0.26 µM (≈ 0.123 µg/mL). The “ΔLog10 CFU/ml at the MIC” value in series [2] stood at 0.72 Log10 CFU/ml. The results for the AUC(0-t) in series [3] (setting [8]) and in series [3] (setting [10]) were 42800 ± 5400 ng·h/mL and 48000 ± 5200 ng·h/mL, respectively. Also, the results for the Cmax in series [3] (setting [9]) and in series [3] (setting [11]) were 2300 ± 200 ng/mL and 2400 ± 200 ng/mL, respectively.
The compound `CC(=O)NC[C@H]1CN(c2ccc(N3CCOCC3)c(F)c2)C(=O)O1` [Linezolid] yielded an MIC in series [1] of 2.31 µM (≈ 0.779 µg/mL). For the same compound, the “ΔLog10 CFU/ml at the MIC” value in series [2] turned out to be 0.25 Log10 CFU/ml. The AUC(0-t) in series [3] (130 mg/kg, Group 9 triplet EMB 100/SQ109 25/LZD 130 mg/kg oral, read-out: AUC0-24 in Triplet) stood at 154000 ± 8800 ng·h/mL; in series [3] (150 mg/kg, Group 9 quartet EMB 100/SQ109 25/LZD 130/PZA 150 mg/kg oral, read-out: AUC0-24 in Quartet), 178000 ± 12200 ng·h/mL. Also, the maximum concentration (Cmax) in series [3] (130 mg/kg, Group 9 triplet EMB 100/SQ109 25/LZD 130 mg/kg oral, read-out: Cmax in Triplet) was found to be 14100 ± 100 ng/mL; in series [3] (150 mg/kg, Group 9 quartet EMB 100/SQ109 25/LZD 130/PZA 150 mg/kg oral, read-out: Cmax in Quartet), 14900 ± 1200 ng/mL.
With `NNC(=O)c1ccncc1` [Isoniazid], the MIC in series [1] was determined as 0.22 µM (≈ 0.0302 µg/mL). Also, the “ΔLog10 CFU/ml at the MIC” value in series [2] is on record as 1.02 Log10 CFU/ml. Besides, the AUC(0-t) stood at 19800 ± 4700 ng·h/mL in series [3] (100 mg/kg, Ref. regimen triplet INH 30/RIF 10/EMB 100 mg/kg oral, read-out: AUC0-24 in Triplet) and 12000 ± 3400 ng·h/mL in series [3] (150 mg/kg, Ref. regimen quartet INH 30/RIF 10/EMB 100/PZA 150 mg/kg oral, read-out: AUC0-24 in Quartet). For the same compound, the Cmax worked out at 10800 ± 2900 ng/mL in series [3] (100 mg/kg, Ref. regimen triplet INH 30/RIF 10/EMB 100 mg/kg oral, read-out: Cmax in Triplet) and 7000 ± 3200 ng/mL in series [3] (150 mg/kg, Ref. regimen quartet INH 30/RIF 10/EMB 100/PZA 150 mg/kg oral, read-out: Cmax in Quartet).

In general, MIC refers to the smallest concentration in the dilution series that meets the test's criterion for growth inhibition. As usually defined, the Cmax is the highest concentration seen after dosing.
